These results are taken from ChEMBL document CHEMBL1201862, “PubChem BioAssay data set” (2004).

Experiment [1] can be described thus: NIH-3T3 fibroblast cytotoxicity, dose response, cytotoxicity control, cell-based, fluorescence, Alamar Blue, secondary assay (AID 2327).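 Also: NIH-3T3 mouse fibroblasts cultured with fluconazole at 8 µg/mL.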 Type of experiment: functional.
In experiment [2] the target is G-protein coupled receptor 35 (Homo sapiens, UniProt Q9HC97). The experiment is described as follows: GPR35 antagonists blocking zaprinast-driven arrestin recruitment, primary screen, imaging, U2OS, beta-arrestin-GFP, zaprinast agonist (AID 2058).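 Also: antagonist potency meaning inhibition of agonist-induced arrestin redistribution.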 Type of experiment: functional.
A short description of experiment [3]: inhibitors of firefly luciferase expression or activity, dose response, H4 neuroglioma cells, luminescence (AID 1990). The format is functional, cell-based.
In experiment [4] the test system is Streptococcus sp. 'group A'. Description: growth inhibition of control SK(-) GAS strain, dose response, counter-screen for streptokinase expression inhibitor project, luminescence, kanamycin, BacTiterGlo, confirmation (AID 1900). Type of experiment: functional, organism-based.
Experiment [5] relates to BJ. Description: cytotoxicity toward BJ-TERT fibroblasts, dose response, cell-based, RAS-independent, luminescence (AID 1933). The format is functional. As to conditions: Homo sapiens.
A short description of experiment [6]: Luminescence Cell-Based Dose Response HTS to Identify Inhibitors of 5'UTR Stem-Loop Driven Prion Protein mRNA Translation in H4 Neuroglioblastoma Cells. [Related pubchem assays: 1827 (Project Summary), 1813 (Primary HTS)]. Type of experiment: functional.
The subject of experiment [7] is BJ. Description: cells. The format is functional, cell-based. As to conditions: Homo sapiens.
Experiment [8] can be described thus: C. albicans growth with fluconazole, confirmation, fluorescence, retest (AID 2467). Type of experiment: functional, cell-based.
The target of experiment [9] is T1, Serine/threonine-protein phosphatase (Candida dubliniensis (strain CD36 / CBS 7987 / NCPF 3949 / NRRLY-17841) (Yeast), UniProt B9W6M3).
T1 sequence (B9W6M3 whole entry): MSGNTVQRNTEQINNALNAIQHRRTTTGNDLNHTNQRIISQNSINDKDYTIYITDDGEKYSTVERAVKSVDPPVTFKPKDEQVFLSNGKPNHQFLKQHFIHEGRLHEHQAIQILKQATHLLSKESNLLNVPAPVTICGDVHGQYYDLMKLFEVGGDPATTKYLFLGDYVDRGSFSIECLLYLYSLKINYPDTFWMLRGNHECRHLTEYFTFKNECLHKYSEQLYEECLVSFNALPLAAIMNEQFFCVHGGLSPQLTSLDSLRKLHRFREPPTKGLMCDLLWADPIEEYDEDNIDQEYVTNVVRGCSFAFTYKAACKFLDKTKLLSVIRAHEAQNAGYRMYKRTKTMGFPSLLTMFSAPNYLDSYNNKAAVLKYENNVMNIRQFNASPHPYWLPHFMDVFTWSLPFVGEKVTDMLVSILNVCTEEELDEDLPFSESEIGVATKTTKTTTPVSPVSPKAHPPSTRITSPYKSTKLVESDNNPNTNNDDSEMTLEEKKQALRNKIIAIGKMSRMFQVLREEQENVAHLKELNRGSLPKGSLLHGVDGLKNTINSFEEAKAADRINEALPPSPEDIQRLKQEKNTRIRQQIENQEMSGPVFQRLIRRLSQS
The experiment is described as follows: calcineurin pathway inhibitors in yeast reporter, dose response, S. cerevisiae, CDRE-lacZ, luminescence, secondary (AID 2388).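 Also: yeast reporter cells carrying a calcineurin-responsive lacZ construct stimulated with calcium chloride; luminescent beta-galactosidase reporter signal in whole cells rather than isolated phosphatase activity; potency for inhibition where a drop in reporter signal means calcineurin blockade.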 Type of experiment: functional, cell-based.

In experiment [10] the test system is BJ. The experiment is described as follows: cytotoxicity toward BJ-TERT-LT-ST fibroblasts, dose response, cell-based, RAS-independent, luminescence (AID 1935).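 Also: BJ fibroblasts immortalized with TERT plus LT and ST oncogenes.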 Type of experiment: functional. The following applies: Homo sapiens.
Experiment [11] in a line: cytotoxicity toward DRD oncogenic fibroblasts, dose response, cell-based, non-viral oncogenic, luminescence (AID 1934). Type of experiment: functional. The following applies: Homo sapiens.
A further experiment has as its system Streptococcus. The experiment is described as follows: Group A Streptococcus viability loss, dose response, counter-screen for streptokinase expression inhibitor project, luminescence, BacTiterGlo (AID 1915).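 Also: potency for reduction of bacterial viability or growth.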 The format is functional, organism-based.
The target of experiment [12] is Cyclin-dependent kinase 5/CDK5 activator 1 (Homo sapiens, UniProt Q00535). The experiment is described as follows: CDK5/p35 kinase inhibitors, dose response, biochemical, cherry-picked samples, set 2 (AID 504545).
Experiment [13] can be described thus: cytotoxicity in HEK-293T cells, dose response, cytotoxicity control for TCR NF-kB inhibitor project, luminescence, T-cell screen hits (AID 489026).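 Also: cells exposed to compound about 14 hours before the viability readout.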 The format is functional, cell-based.
Another experiment concerns the target Nonstructural protein 1 (Influenza A virus, UniProt Q194T2). Type of experiment: functional, Influenza A virus (A/California/07/2009(H1N1)).
The next experiment concerns the target T2, Cysteine protease ATG4B (Homo sapiens, UniProt Q9Y4P1).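 Also: Fluorescence-based dose-response confirmation assay measuring inhibition of ATG4B activity.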
T2 sequence (Q9Y4P1 whole entry): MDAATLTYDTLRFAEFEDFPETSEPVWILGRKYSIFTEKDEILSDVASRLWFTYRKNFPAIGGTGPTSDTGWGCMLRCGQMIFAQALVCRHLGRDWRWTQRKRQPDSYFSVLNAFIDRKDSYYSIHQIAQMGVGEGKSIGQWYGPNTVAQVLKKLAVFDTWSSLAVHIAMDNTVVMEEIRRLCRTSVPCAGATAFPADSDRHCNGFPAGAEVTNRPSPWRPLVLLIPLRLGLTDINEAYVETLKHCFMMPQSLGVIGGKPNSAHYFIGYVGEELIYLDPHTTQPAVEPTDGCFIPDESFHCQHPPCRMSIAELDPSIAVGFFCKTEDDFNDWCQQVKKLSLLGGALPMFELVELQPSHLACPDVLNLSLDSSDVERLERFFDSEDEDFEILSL
The format is functional.

The next experiment deals with Phospholipase A2 (Homo sapiens, UniProt P04054). Type of experiment: functional.
The target in experiment [14] is T3, Apoptotic protease-activating factor 1 (Homo sapiens, UniProt O14727).
T3 sequence (O14727 whole entry): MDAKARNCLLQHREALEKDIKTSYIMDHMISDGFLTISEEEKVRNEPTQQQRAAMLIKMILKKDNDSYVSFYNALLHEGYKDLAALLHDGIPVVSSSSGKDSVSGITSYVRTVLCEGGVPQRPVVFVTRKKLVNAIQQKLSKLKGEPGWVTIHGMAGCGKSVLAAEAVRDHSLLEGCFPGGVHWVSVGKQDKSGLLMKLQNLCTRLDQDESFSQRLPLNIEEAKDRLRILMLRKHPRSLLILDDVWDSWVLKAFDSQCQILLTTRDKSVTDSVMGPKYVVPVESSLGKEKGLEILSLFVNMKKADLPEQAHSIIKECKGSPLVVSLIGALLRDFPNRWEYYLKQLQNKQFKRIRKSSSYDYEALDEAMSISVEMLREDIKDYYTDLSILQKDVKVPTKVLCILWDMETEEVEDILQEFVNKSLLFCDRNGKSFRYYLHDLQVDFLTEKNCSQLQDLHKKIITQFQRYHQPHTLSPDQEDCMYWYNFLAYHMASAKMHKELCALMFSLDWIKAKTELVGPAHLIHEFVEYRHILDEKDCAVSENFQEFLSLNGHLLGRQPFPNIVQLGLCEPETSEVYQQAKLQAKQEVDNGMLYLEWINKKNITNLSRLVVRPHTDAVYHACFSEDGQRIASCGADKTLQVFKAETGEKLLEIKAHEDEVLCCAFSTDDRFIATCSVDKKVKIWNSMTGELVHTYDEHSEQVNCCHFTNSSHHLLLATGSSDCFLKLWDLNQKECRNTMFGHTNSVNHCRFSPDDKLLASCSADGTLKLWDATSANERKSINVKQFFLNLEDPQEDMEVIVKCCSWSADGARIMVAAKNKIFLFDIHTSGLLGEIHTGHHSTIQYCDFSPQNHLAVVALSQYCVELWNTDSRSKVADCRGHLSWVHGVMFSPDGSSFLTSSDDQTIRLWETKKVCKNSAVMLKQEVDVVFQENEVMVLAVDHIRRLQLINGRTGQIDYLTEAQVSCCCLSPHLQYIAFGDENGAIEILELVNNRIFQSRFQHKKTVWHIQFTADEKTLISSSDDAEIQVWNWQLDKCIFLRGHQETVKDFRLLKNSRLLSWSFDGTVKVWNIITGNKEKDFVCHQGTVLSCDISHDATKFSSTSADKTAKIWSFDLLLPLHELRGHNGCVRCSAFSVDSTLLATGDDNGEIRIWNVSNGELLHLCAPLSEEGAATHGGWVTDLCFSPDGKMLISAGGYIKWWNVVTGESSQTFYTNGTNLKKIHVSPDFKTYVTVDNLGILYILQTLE
The format is functional.

Experiment [15] has as its system BJ. Description: cytotoxicity toward Ras-transformed BJeLR fibroblasts, dose response, cell-based, alamar blue fluorescence, cherrypicked samples (AID 2631).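 Also: confirmatory dose-response assay in RAS-dependent BJ fibroblasts engineered with TERT, LT and ST, with cytotoxicity read by fluorescence.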 Type of experiment: functional. The following applies: Homo sapiens.
The target in another experiment is Beta-arrestin-1 (Homo sapiens, UniProt P49407). Description: inhibitors of arrestin peptide binding to AP2, dose response, biochemical, cherry pick 1, beta2-adaptin appendage, flow cytometry (AID 588783). The format is functional.
Experiment [16] deals with ATP-dependent molecular chaperone HSP82 (Candida albicans (strain WO-1) (Yeast), UniProt C4YTQ8). Description: loss of DOC-induced GRE-beta-galactosidase reporter signal, dose response, Hsp90 inhibitor project, S. cerevisiae, luminescence (AID 2400).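 Also: beta-galactosidase luminescence from glucocorticoid response element reporter as proxy for Hsp90 function; inhibitor potency where signal loss means Hsp90 inhibition.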 The format is functional, cell-based.
Experiment [17] deals with T4, Short transient receptor potential channel 4 (Mus musculus, UniProt Q9QUQ5).
T4 sequence (Q9QUQ5 whole entry): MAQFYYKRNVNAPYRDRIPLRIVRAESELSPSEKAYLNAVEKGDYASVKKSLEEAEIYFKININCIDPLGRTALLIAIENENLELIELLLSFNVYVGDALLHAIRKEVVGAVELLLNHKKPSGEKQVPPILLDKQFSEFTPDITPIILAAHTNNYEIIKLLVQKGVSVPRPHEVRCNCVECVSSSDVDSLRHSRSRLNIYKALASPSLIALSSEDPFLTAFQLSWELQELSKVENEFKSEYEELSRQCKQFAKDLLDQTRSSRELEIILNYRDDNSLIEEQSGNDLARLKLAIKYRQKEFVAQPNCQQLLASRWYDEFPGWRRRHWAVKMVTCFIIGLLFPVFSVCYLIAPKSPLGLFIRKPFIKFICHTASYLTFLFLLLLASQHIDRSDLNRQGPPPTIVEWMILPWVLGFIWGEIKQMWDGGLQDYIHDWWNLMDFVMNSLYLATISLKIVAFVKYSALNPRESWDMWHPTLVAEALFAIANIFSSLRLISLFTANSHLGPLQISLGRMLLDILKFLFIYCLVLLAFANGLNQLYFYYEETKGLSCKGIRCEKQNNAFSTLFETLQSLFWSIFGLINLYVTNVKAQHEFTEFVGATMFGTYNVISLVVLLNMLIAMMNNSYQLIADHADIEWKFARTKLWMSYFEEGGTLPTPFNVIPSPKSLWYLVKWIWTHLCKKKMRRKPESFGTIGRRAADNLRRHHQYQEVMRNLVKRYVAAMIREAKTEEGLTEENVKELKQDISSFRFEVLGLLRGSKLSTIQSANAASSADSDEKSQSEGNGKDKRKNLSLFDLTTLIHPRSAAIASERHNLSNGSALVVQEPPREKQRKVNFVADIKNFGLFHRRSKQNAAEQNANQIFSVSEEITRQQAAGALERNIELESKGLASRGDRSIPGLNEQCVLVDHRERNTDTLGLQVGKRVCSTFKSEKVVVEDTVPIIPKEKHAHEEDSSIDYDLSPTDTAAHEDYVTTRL
The experiment is described as follows: mouse TRPC4 channel activators, dose response, cell-based, HEK293 TRPC4/mu-opioid, Fluo-4 calcium (AID 434937). The format is functional.

Experiment [18] deals with Delta-type opioid receptor (Homo sapiens, UniProt P41143). The experiment is described as follows: Counterscreen for agonists of heterodimerization of the mu 1 (OPRM1) and delta 1 (OPRD1) opioid receptors: Luminescence-based cell-based high throughput dose response assay to identify agonists of OPRD1 homodimerization. [Related pubchem assays (depositor defined):AID504326, AID504355, AID504692, AID504904, AID504905]. Type of experiment: functional.

A further experiment addresses Mu-type opioid receptor (Homo sapiens, UniProt P35372). Description: Counterscreen for agonists of heterodimerization of the mu 1 (OPRM1) and delta 1 (OPRD1) opioid receptors: Luminescence-based cell-based high throughput dose response assay to identify agonists of OPRM1 homodimerization. Type of experiment: functional.
The target of experiment [19] is 5-hydroxytryptamine receptor 5A (Homo sapiens, UniProt P47898). Description: Counterscreen for agonists of OPRM1-OPRD1 heterodimerization: luminescence-based cell-based high throughput dose response assay to identify agonists of 5-hydroxytryptamine (serotonin) 5A receptor (HTR5A). [Related pubchem assays (depositor defined):AID504326, AID504355, AID504692, AID504904, AID504905]. Type of experiment: functional.

The next experiment addresses CAAX prenyl protease 1 (Saccharomyces cerevisiae S288c, UniProt P47154). Description: Ste24 protease inhibitors, dose response, biochemical, S. cerevisiae, plate reader, cherry-pick (AID 488815).
The target in the next experiment is CAAX prenyl protease 2 (Homo sapiens, UniProt Q9Y256). Description: human Rce1 protease inhibitors, dose response, biochemical, yeast membranes, quenched-peptide fluorescence, cherry-pick (AID 588849).

SMILES strings stand for the structures. Active and inactive are the calls of the source. Some results are limits rather than exact numbers.

Nonstructural protein 1, sequence (Q194T2 whole entry): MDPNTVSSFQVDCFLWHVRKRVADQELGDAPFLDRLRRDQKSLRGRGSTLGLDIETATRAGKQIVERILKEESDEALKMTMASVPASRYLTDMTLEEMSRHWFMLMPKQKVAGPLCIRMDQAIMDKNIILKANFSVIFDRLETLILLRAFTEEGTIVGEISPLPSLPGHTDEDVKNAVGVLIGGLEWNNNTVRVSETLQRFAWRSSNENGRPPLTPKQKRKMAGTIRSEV
Mu-type opioid receptor, sequence (P35372 whole entry): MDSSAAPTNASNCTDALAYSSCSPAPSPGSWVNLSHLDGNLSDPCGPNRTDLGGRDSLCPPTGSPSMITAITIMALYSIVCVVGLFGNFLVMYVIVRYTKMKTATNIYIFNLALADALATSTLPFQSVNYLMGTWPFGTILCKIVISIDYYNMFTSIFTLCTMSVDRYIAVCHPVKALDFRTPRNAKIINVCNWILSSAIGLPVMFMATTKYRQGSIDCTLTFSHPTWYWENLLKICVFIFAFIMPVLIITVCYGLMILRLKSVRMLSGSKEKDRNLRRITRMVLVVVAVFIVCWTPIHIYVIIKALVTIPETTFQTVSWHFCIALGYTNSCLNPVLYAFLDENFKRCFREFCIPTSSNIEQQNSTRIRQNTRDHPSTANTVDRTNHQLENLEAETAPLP
Phospholipase A2, sequence (P04054 whole entry): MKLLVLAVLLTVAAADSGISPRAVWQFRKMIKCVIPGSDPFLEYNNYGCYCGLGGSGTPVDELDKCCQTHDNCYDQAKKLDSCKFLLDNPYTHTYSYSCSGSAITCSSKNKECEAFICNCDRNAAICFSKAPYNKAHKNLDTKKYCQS
ATP-dependent molecular chaperone HSP82, sequence (C4YTQ8 whole entry): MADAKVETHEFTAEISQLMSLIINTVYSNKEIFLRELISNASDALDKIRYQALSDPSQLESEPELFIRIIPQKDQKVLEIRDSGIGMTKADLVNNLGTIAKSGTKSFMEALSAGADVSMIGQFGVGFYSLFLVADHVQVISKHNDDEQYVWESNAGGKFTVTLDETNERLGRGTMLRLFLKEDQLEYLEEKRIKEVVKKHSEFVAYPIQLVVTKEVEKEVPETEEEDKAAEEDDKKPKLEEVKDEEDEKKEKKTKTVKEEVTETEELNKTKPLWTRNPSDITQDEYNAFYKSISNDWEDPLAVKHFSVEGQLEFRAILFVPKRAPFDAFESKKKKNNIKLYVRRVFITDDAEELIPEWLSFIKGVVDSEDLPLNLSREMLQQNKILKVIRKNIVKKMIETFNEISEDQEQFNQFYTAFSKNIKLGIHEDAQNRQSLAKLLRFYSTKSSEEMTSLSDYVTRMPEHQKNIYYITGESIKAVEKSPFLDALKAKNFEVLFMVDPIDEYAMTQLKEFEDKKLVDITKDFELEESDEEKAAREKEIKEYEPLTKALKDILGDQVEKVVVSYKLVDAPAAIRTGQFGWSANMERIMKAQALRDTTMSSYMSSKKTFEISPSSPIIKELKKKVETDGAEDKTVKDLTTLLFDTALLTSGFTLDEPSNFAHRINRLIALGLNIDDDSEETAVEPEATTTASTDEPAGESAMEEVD
CAAX prenyl protease 1, sequence (P47154 whole entry): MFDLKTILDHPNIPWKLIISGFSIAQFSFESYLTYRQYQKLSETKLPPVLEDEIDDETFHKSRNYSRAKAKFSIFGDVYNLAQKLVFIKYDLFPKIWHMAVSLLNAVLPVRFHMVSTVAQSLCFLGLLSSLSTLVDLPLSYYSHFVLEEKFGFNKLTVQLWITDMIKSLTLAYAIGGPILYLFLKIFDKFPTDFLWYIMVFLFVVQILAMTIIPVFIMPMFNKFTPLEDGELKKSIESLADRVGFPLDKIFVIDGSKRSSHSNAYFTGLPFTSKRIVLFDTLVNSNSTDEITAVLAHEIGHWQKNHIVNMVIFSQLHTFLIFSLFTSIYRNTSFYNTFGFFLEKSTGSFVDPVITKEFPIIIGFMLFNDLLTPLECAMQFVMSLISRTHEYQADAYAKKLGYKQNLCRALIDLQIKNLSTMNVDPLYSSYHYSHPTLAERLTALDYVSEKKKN
5-hydroxytryptamine receptor 5A, sequence (P47898 whole entry): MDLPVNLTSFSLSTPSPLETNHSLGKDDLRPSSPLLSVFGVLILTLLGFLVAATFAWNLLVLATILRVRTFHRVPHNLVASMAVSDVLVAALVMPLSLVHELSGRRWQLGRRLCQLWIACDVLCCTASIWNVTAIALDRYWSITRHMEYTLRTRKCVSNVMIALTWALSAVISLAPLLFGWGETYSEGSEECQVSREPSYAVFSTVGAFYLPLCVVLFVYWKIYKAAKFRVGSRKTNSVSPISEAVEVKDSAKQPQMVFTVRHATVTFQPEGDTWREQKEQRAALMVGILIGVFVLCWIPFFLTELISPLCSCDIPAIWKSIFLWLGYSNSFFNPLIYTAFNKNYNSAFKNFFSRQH
Beta-arrestin-1, sequence (P49407 whole entry): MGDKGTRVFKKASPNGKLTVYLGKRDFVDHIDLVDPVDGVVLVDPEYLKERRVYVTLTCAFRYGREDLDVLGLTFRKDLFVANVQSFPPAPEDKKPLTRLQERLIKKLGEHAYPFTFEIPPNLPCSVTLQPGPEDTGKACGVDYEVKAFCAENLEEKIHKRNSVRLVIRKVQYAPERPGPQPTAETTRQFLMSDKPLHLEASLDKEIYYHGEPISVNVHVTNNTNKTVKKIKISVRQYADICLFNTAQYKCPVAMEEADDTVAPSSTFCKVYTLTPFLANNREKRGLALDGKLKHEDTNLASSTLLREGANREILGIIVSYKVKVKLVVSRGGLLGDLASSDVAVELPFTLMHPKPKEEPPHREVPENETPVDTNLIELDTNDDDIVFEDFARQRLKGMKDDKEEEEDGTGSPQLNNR
G-protein coupled receptor 35, sequence (Q9HC97 whole entry): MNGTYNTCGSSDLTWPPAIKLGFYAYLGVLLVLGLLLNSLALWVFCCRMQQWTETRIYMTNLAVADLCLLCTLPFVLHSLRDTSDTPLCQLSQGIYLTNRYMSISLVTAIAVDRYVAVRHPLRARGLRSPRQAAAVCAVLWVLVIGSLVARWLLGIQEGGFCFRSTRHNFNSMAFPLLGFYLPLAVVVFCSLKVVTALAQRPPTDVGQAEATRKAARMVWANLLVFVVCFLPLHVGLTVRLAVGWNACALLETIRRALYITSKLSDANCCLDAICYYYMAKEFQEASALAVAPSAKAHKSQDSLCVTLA
CAAX prenyl protease 2, sequence (Q9Y256 whole entry): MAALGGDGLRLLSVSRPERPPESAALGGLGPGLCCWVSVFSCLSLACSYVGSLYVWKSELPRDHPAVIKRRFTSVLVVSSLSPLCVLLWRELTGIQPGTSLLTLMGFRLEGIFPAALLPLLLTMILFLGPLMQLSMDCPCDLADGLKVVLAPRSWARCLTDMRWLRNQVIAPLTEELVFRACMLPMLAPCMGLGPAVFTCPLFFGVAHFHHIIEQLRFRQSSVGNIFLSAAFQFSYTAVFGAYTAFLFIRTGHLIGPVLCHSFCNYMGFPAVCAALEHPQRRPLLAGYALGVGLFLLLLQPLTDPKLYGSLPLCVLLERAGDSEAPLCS
Delta-type opioid receptor, sequence (P41143 whole entry): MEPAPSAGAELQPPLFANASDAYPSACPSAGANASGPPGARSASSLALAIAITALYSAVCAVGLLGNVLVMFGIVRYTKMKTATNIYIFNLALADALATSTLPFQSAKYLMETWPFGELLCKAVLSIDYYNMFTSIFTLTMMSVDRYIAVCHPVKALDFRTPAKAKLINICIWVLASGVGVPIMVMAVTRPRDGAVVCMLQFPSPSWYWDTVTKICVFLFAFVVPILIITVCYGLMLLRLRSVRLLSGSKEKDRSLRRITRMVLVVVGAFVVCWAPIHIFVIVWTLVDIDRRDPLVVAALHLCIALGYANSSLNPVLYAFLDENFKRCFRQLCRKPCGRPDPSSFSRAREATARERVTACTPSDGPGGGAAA
Cyclin-dependent kinase 5/CDK5 activator 1, sequence (Q00535 whole entry): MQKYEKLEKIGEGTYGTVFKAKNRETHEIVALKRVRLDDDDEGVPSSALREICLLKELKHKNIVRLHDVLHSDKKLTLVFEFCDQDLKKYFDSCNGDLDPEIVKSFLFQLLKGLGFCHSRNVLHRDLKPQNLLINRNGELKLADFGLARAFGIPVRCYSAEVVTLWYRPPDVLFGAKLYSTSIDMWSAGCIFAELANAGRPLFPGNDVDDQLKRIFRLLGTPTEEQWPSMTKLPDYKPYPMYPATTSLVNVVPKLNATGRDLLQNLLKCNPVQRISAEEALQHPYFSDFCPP
Cyclin-dependent kinase 5/CDK5 activator 1, sequence (Q15078 whole entry, further chain): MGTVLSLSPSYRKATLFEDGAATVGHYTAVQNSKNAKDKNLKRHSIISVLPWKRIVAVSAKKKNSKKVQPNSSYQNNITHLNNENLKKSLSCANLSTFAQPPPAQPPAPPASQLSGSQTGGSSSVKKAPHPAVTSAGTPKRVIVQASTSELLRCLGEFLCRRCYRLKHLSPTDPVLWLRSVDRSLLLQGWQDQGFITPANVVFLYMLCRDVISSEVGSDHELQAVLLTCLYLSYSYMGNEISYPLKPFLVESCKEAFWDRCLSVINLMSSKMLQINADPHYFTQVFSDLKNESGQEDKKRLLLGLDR

As to `CCN1/C(=C/C(C)=C/c2sc3ccccc3[n+]2CC)Sc2ccccc21`, the EC50 in experiment [1] is 77.7 µM (active); in experiment [3], < 0.1 µM (active); in experiment [4], 2.15 µM (active); in the experiment with BJ [5] it was 4.56 µM (active); in [6] it was 1.68 µM (active); with BJ [7] it was 6.01 µM (active). Moreover, the EC50 in experiment [8] was 0.051 µM (active); in [9], > 180 µM (inactive); in the experiment with BJ [10], 5.48 µM (inconclusive); in [11], 6.17 µM (active); in the experiment with Streptococcus, 2.74 µM (active); in the experiment on BJ [15], 1.74 µM (active). The EC50 in experiment [16] was 18.3 µM (active). Further, the IC50 in [2] is 1.01 µM (active); in [13], 64.4 µM (inactive); at Nonstructural protein 1, 5.7 µM (active); at Cysteine protease ATG4B, 8.62 µM (active); on Phospholipase A2, 7.86 µM (active); in experiment [14], 19.4 µM (active). Besides, the IC50 on Beta-arrestin-1 is 2.2 µM (active). Also, the AC50 in experiment [12] was 41.1 µM (active).
Regarding `Cc1ccccc1N(CC(=O)N/N=C/c1ccc(F)cc1)C(=O)c1ccccc1`, the EC50 in [17] is 2.11 µM (active); in experiment [18] it was > 92.5 µM (inactive); at Mu-type opioid receptor it was > 92.5 µM (inactive); in experiment [19], > 92.5 µM (inactive).
Consider `CC1CCCC(/C=N/c2ccccc2C(=O)O)=C1O` (configuration not stated), for which the results for the AC50 on CAAX prenyl protease 1 and on CAAX prenyl protease 2 were 4.3 µM (active) and 11.6 µM (active), respectively.
